From patent EP2250163B1, “HEPATITIS C VIRUS INHIBITORS” (Bristol-Myers Squibb Company, priority 2008, dated 2009)
pEC50: −log10 of the molar value.

System: HCV 1b-377-neo replicon cells
Test: HCV replicon assay, wild-type cells
Assay type: cell-based
Settings: Hepatitis C virus, against the HCV 1b genotype, read-out: EC50 Range
Protocol: An HCV Replion assay was utilized in the present disclosure, and was prepared, conducted and validated as described in commonly owned PCT/US2006/022197 and in O'Boyle et al. Antimicrob Agents Chemother. 2005 Apr;49(4):1346-53.
HCV 1b-377-neo replicon cells were used to test the currently described compound series as well as cells resistant to compound A due to a Y2065H mutation in NS5A (described in application PCT/US2006/022197). The compounds tested were determined to have more than 10-fold less inhibitory activity on cells resistant to compound A than wild-type cells indicating a related mechanism of action between the two compound series. Thus, the compounds of the present disclosure can be effective to inhibit the function of the HCV NS5A protein and are understood to be as effective in combinations as previously described in application PCT/US2006/022197 and commonly owned WO/04014852. Further, the compounds of the present disclosure can be effective against the HCV 1b genotype. It should also be understood that the compounds of the present disclosure can inhibit multiple genotypes of HCV. […] In one embodiment compounds of the present disclosure are active against the 1a, 1b, 2a, 2b, 3a, 4a, and 5a genotypes.

| SMILES | pEC50 |
| --- | --- |
| COCC[C@H](NC(=O)OC)C(=O)N[C@H](c1nc(-c2ccc(-c3ccc(-c4c[nH]c([C@@H]5CCCN5C(=O)[C@H](CCOC)NC(=O)OC)n4)cc3)cc2)c[nH]1)C(C)C [Example R20, methyl ((1S)-3-methoxy-1-(((2S)-2-(4-(4'-(2-((1S)-1-((N-(methoxycarbonyl)-O-methyl-L-homoseryl)amino)-2-methylpropyl)-1H-imidazol-4-yl)-4-biphenylyl)-1H-imidazol-2-yl)-1-pyrrolidinyl)carbonyl)propyl)carbamate] | 9.00 to 12.00 |
| COC(=O)N[C@H](C(=O)Nc1ncc(-c2ccc(-c3ccc(-c4cnc([C@@H]5CCCN5C(=O)[C@@H](NC(=O)OC)C(C)C)[nH]4)cc3)cc2)[nH]1)C(C)C [Example R33, (S)-2-methoxycarbonylamino-N-(5-(4'-(2-((S)-1-((S)-2-methoxycarbonylamino-3-methylbutanoyl)pyrrolidin-2-yl)-1H-imidazol-5-yl)biphenyl-4-yl)-1H-imidazol-2-yl)-3-methylbutanamide] | 7.00 to 9.00 |
